Values belong to the molecule of their own block, whether it stands above or below them.
Tested on: 565726-208-R1-J5-PDC complex spheroids, growth inhibition
Test: Anticancer human tumor 565726-208-R1-J5-PDC patient-derived pancreatic adenocarcinoma cell line growth inhibition [RAS]
Settings: for IC50: curve of first compound; for viability, T/C: stronger effect = lower value
Method in brief: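 Agents were tested in combination matrices in half-log decrements from a top concentration at or near clinical Cmax (10 microM if undetermined). Targets were multi-cell spheroids of tumour lines plus HUVEC and MSC stromal cells.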

[1] = second compound 0.000949 µM, first compound 0.00316 µM
[2] = second compound 0.000949 µM, first compound 0.01 µM
[3] = second compound 0.000949 µM, first compound 0.0316 µM
[4] = second compound 0.000949 µM, first compound 0.1 µM
[5] = second compound 0.003 µM, first compound 0.00316 µM
[6] = second compound 0.003 µM, first compound 0.01 µM
[7] = second compound 0.003 µM, first compound 0.0316 µM
[8] = second compound 0.003 µM, first compound 0.1 µM
[9] = second compound 0.00949 µM, first compound 0.00316 µM
[10] = second compound 0.00949 µM, first compound 0.01 µM
[11] = second compound 0.00949 µM, first compound 0.0316 µM
[12] = second compound 0.00949 µM, first compound 0.1 µM
[13] = second compound 0.03 µM, first compound 0.00316 µM
[14] = second compound 0.03 µM, first compound 0.01 µM
[15] = second compound 0.03 µM, first compound 0.0316 µM
[16] = second compound 0.03 µM, first compound 0.1 µM
[17] = second compound 0.0949 µM, first compound 0.00316 µM
[18] = second compound 0.0949 µM, first compound 0.01 µM
[19] = second compound 0.0949 µM, first compound 0.0316 µM
[20] = second compound 0.0949 µM, first compound 0.1 µM
[21] = second compound 0.3 µM, first compound 0.00316 µM
[22] = second compound 0.3 µM, first compound 0.01 µM
[23] = second compound 0.3 µM, first compound 0.0316 µM
[24] = second compound 0.3 µM, first compound 0.1 µM
[25] = second compound 0.000949 µM, first compound 0.316 µM
[26] = second compound 0.000949 µM, first compound 1 µM
[27] = second compound 0.000949 µM, first compound 3.16 µM
[28] = second compound 0.000949 µM, first compound 10 µM
[29] = second compound 0.003 µM, first compound 0.316 µM
[30] = second compound 0.003 µM, first compound 1 µM
[31] = second compound 0.003 µM, first compound 3.16 µM
[32] = second compound 0.003 µM, first compound 10 µM
[33] = second compound 0.00949 µM, first compound 0.316 µM
[34] = second compound 0.00949 µM, first compound 1 µM
[35] = second compound 0.00949 µM, first compound 3.16 µM
[36] = second compound 0.00949 µM, first compound 10 µM
[37] = second compound 0.03 µM, first compound 0.316 µM
[38] = second compound 0.03 µM, first compound 1 µM
[39] = second compound 0.03 µM, first compound 3.16 µM
[40] = second compound 0.03 µM, first compound 10 µM
[41] = second compound 0.0949 µM, first compound 0.316 µM
[42] = second compound 0.0949 µM, first compound 1 µM
[43] = second compound 0.0949 µM, first compound 3.16 µM
[44] = second compound 0.0949 µM, first compound 10 µM
[45] = second compound 0.3 µM, first compound 0.316 µM
[46] = second compound 0.3 µM, first compound 1 µM
[47] = second compound 0.3 µM, first compound 3.16 µM
[48] = second compound 0.3 µM, first compound 10 µM
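Further: spheroids exposed to compounds for seven days before readout.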
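Wherever viability, T/C is given: 100% = DMSO vehicle control viability.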

IC50 (second compound 0.000949 µM): 0.0019 µM
IC50 (second compound 0.003 µM): < 0.000316 µM
IC50 (second compound 0.00949 µM): < 0.000316 µM
IC50 (second compound 0.03 µM): < 0.000316 µM
IC50 (second compound 0.0949 µM): < 0.000316 µM
IC50 (second compound 0.3 µM): < 0.000316 µM
SMILES: CC(C)n1nc(-c2ccc3oc(N)nc3c2)c2c(N)ncnc21 + CCn1c(-c2cc(N3CCN(C)CC3)cnc2C(C)OC)c2c3cc(ccc31)-c1csc(n1)CC(NC(=O)C1CC1C)C(=O)N1CCCC(N1)C(=O)OCC(C)(C)C2
viability, T/C (second compound 0.000949 µM, first compound 0.000316 µM): 65.3%
viability, T/C (second compound 0.000949 µM, first compound 0.001 µM): 48.7%
viability, T/C [1]: 51.4%
viability, T/C [2]: 36.5%
viability, T/C [3]: 23.8%
viability, T/C [4]: 17.7%
viability, T/C (second compound 0.003 µM, first compound 0.000316 µM): 48.6%
viability, T/C (second compound 0.003 µM, first compound 0.001 µM): 45.6%
viability, T/C [5]: 38.6%
viability, T/C [6]: 28.4%
viability, T/C [7]: 20.7%
viability, T/C [8]: 14.1%
viability, T/C (second compound 0.00949 µM, first compound 0.000316 µM): 40.4%
viability, T/C (second compound 0.00949 µM, first compound 0.001 µM): 35.5%
viability, T/C [9]: 30.6%
viability, T/C [10]: 22.7%
viability, T/C [11]: 15.7%
viability, T/C [12]: 10.6%
viability, T/C (second compound 0.03 µM, first compound 0.000316 µM): 30%
viability, T/C (second compound 0.03 µM, first compound 0.001 µM): 31.1%
viability, T/C [13]: 26%
viability, T/C [14]: 17.5%
viability, T/C [15]: 13.2%
viability, T/C [16]: 8.25%
viability, T/C (second compound 0.0949 µM, first compound 0.000316 µM): 26.7%
viability, T/C (second compound 0.0949 µM, first compound 0.001 µM): 25.9%
viability, T/C [17]: 20.3%
viability, T/C [18]: 14.6%
viability, T/C [19]: 10.4%
viability, T/C [20]: 6.63%
viability, T/C (second compound 0.3 µM, first compound 0.000316 µM): 22.7%
viability, T/C (second compound 0.3 µM, first compound 0.001 µM): 21.3%
viability, T/C [21]: 18.9%
viability, T/C [22]: 15.1%
viability, T/C [23]: 11.1%
viability, T/C [24]: 6.78%

IC50 (second compound 0.000949 µM): 1.01 µM
IC50 (second compound 0.003 µM): < 0.0316 µM
IC50 (second compound 0.00949 µM): < 0.0316 µM
IC50 (second compound 0.03 µM): < 0.0316 µM
IC50 (second compound 0.0949 µM): < 0.0316 µM
IC50 (second compound 0.3 µM): < 0.0316 µM
SMILES: CC1(O)CCCC1n1c(=O)c(C(F)F)cc2cnc(NC3CCN(S(C)(=O)=O)CC3)nc21 (stereo not drawn) + CCn1c(-c2cc(N3CCN(C)CC3)cnc2C(C)OC)c2c3cc(ccc31)-c1csc(n1)CC(NC(=O)C1CC1C)C(=O)N1CCCC(N1)C(=O)OCC(C)(C)C2
viability, T/C [3]: 58%
viability, T/C [4]: 46.6%
viability, T/C [25]: 47.6%
viability, T/C [26]: 50.4%
viability, T/C [27]: 33.1%
viability, T/C [28]: 3.21%
viability, T/C [7]: 48.5%
viability, T/C [8]: 45.7%
viability, T/C [29]: 43.9%
viability, T/C [30]: 37.1%
viability, T/C [31]: 26.5%
viability, T/C [32]: 2.82%
viability, T/C [11]: 41.4%
viability, T/C [12]: 36.7%
viability, T/C [33]: 37.6%
viability, T/C [34]: 31.7%
viability, T/C [35]: 25%
viability, T/C [36]: 3.34%
viability, T/C [15]: 34.2%
viability, T/C [16]: 29.8%
viability, T/C [37]: 31.3%
viability, T/C [38]: 31.2%
viability, T/C [39]: 17.3%
viability, T/C [40]: 3.06%
viability, T/C [19]: 25.7%
viability, T/C [20]: 25.4%
viability, T/C [41]: 26%
viability, T/C [42]: 24.2%
viability, T/C [43]: 15.3%
viability, T/C [44]: 2.88%
viability, T/C [23]: 19.9%
viability, T/C [24]: 25.7%
viability, T/C [45]: 22%
viability, T/C [46]: 24.2%
viability, T/C [47]: 14.6%
viability, T/C [48]: 3.06%

IC50 (second compound 0.000949 µM): 0.0728 µM
IC50 (second compound 0.003 µM): < 0.00316 µM
IC50 (second compound 0.00949 µM): < 0.00316 µM
IC50 (second compound 0.03 µM): < 0.00316 µM
IC50 (second compound 0.0949 µM): < 0.00316 µM
IC50 (second compound 0.3 µM): < 0.00316 µM
SMILES: CCN1CCN(Cc2ccc(Nc3ncc(F)c(-c4cc(F)c5nc(C)n(C(C)C)c5c4)n3)nc2)CC1 + CCn1c(-c2cc(N3CCN(C)CC3)cnc2C(C)OC)c2c3cc(ccc31)-c1csc(n1)CC(NC(=O)C1CC1C)C(=O)N1CCCC(N1)C(=O)OCC(C)(C)C2
viability, T/C [1]: 57.7%
viability, T/C [2]: 57.9%
viability, T/C [3]: 57%
viability, T/C [4]: 47.2%
viability, T/C [25]: 35.4%
viability, T/C [26]: 31.6%
viability, T/C [5]: 51.7%
viability, T/C [6]: 41.4%
viability, T/C [7]: 51.7%
viability, T/C [8]: 35.5%
viability, T/C [29]: 35%
viability, T/C [30]: 23.9%
viability, T/C [9]: 41.4%
viability, T/C [10]: 41.4%
viability, T/C [11]: 31.1%
viability, T/C [12]: 32.4%
viability, T/C [33]: 22.3%
viability, T/C [34]: 18.8%
viability, T/C [13]: 33.2%
viability, T/C [14]: 29.2%
viability, T/C [15]: 28.4%
viability, T/C [16]: 25.5%
viability, T/C [37]: 22.7%
viability, T/C [38]: 18.8%
viability, T/C [17]: 25.1%
viability, T/C [18]: 23.8%
viability, T/C [19]: 22%
viability, T/C [20]: 21.1%
viability, T/C [41]: 19.4%
viability, T/C [42]: 15.7%
viability, T/C [21]: 24.1%
viability, T/C [22]: 23.3%
viability, T/C [23]: 20.1%
viability, T/C [24]: 18.8%
viability, T/C [45]: 18%
viability, T/C [46]: 15.6%

IC50 (second compound 0.000949 µM): > 10 µM
IC50 (second compound 0.003 µM): > 10 µM
IC50 (second compound 0.00949 µM): < 0.0316 µM
IC50 (second compound 0.03 µM): < 0.0316 µM
IC50 (second compound 0.0949 µM): < 0.0316 µM
IC50 (second compound 0.3 µM): < 0.0316 µM
SMILES: C[C@@H](NC(=O)c1ncnc(N)c1Cl)c1ncc(C(=O)Nc2cc(C(F)(F)F)c(Cl)cn2)s1 + CCn1c(-c2cc(N3CCN(C)CC3)cnc2C(C)OC)c2c3cc(ccc31)-c1csc(n1)CC(NC(=O)C1CC1C)C(=O)N1CCCC(N1)C(=O)OCC(C)(C)C2
viability, T/C [3]: 65.1%
viability, T/C [4]: 73.5%
viability, T/C [25]: 76.7%
viability, T/C [26]: 69.5%
viability, T/C [27]: 72.1%
viability, T/C [28]: 58%
viability, T/C [7]: 61%
viability, T/C [8]: 57.5%
viability, T/C [29]: 57.3%
viability, T/C [30]: 58.1%
viability, T/C [31]: 56.8%
viability, T/C [32]: 46.5%
viability, T/C [11]: 48%
viability, T/C [12]: 48.2%
viability, T/C [33]: 49.9%
viability, T/C [34]: 48%
viability, T/C [35]: 52.5%
viability, T/C [36]: 40.8%
viability, T/C [15]: 34.9%
viability, T/C [16]: 39.1%
viability, T/C [37]: 36.2%
viability, T/C [38]: 37.4%
viability, T/C [39]: 40.3%
viability, T/C [40]: 31.4%
viability, T/C [19]: 31.2%
viability, T/C [20]: 32.2%
viability, T/C [41]: 31.7%
viability, T/C [42]: 32.5%
viability, T/C [43]: 32.9%
viability, T/C [44]: 29.1%
viability, T/C [23]: 24.6%
viability, T/C [24]: 27.8%
viability, T/C [45]: 26.7%
viability, T/C [46]: 29.8%
viability, T/C [47]: 31%
viability, T/C [48]: 28.2%
